Assay results published in ChEMBL document CHEMBL5113541, “Design, Synthesis, and Monoamine Oxidase B Selective Inhibitory Activity of N-Arylated Heliamine Analogues” (ACS Med Chem Lett, 2022).
Converted amounts (≈) assume the structure as drawn.

Assays:
[1] = Solubility of compound in PBS at pH 7.0 at 100 uM measured for 20 mins by LC-MS/MS analysis; assay type: physicochemical
[2] = Lipophilicity, log D of the compound at pH 7.4; assay type: physicochemical; settings: buffer
[3] = Metabolic stability in human liver microsome assessed as compound remaining at 500 uM measured at 60 mins by LC-MS/MS method; assay type: ADME; settings: liver microsomes, read-out: Stability
[4] = Metabolic stability in mouse liver microsome assessed as compound remaining at 500 uM measured at 10 mins by LC-MS/MS method; assay type: ADME; settings: liver microsomes, read-out: Stability
[5] = Metabolic stability in human liver microsome assessed as compound remaining at 500 uM measured at 10 mins by LC-MS/MS method; assay type: ADME; settings: liver microsomes, read-out: Stability
[6] = Apparent permeability of the compound in human Caco-2 cells at 25 uM measured after 2 hrs by LC-MS/MS analysis; assay type: ADME, cell-based
[7] = Metabolic stability in mouse liver microsome assessed as compound remaining at 500 uM measured at 60 mins by LC-MS/MS method; assay type: ADME; settings: liver microsomes, read-out: Stability
[8] = target: T1, MAO-B (amine oxidase [flavin-containing] B) (Homo sapiens, UniProt P27338); assay: Inhibition of human MAO-B assessed as residual activity at 10 uM relative to control; settings: read-out: Activity
T1 sequence (P27338 whole entry): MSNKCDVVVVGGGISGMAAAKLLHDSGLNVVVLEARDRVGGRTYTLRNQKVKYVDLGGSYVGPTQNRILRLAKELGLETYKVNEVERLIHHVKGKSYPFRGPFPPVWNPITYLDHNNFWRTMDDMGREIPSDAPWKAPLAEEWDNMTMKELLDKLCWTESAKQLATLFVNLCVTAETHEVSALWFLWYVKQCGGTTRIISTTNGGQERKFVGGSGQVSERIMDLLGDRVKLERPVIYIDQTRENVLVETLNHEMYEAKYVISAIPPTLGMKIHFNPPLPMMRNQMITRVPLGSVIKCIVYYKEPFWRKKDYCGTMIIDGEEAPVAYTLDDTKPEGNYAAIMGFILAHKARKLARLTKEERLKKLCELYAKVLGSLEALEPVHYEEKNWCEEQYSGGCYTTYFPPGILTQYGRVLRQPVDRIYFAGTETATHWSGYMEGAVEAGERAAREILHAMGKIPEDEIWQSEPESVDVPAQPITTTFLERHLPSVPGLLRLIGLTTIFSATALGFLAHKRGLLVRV

[9] = target: T2, Amine oxidase [flavin-containing] A (Homo sapiens, UniProt P21397); assay: Inhibition of human MAO-A measure after 1 hr by microplate reader analysis
T2 sequence (P21397 whole entry): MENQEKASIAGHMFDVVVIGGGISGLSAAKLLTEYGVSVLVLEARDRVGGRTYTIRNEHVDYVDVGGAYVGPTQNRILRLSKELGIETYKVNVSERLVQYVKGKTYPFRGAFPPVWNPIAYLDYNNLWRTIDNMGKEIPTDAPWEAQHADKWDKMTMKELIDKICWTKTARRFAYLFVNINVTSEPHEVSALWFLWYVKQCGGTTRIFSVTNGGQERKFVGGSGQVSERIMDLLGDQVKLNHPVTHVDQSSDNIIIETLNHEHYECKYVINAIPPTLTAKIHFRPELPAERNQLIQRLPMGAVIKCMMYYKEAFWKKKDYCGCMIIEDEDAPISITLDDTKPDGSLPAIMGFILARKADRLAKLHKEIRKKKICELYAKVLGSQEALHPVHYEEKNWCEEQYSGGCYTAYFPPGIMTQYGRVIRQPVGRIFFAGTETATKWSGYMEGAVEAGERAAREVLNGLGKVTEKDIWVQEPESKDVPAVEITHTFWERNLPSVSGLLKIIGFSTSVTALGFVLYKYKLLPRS

SH-SY5Y = assay: Cytotoxicity against human SH-SY5Y cells assessed as inhibition of cell viability at 10 uM after 24 hrs by MTS assay relative to control; assay type: functional
[10] = target: T3, Amine oxidase [flavin-containing] B (Homo sapiens, UniProt P27338); assay: Inhibition of human MAO-B measure after 1 hr by microplate reader analysis
T3 sequence (P27338 whole entry): T1 sequence (P27338 whole entry)

Rattus norvegicus = organism: Rattus norvegicus; assay: Inhibition of rat brain stem MAO at 2 mM using serotonin as substrate incubated for 30 mins by fluorometric analysis relative to control; assay type: tissue-based; settings: Brainstem

SMILES	solubility at 20 min, 100 µM [1]	logD [2]	remaining at 1 h [3]	remaining at 10 min [4]	remaining at 10 min [5]	Papp at 2 h, 25 µM [6]	remaining at 1 h [7]	activity at 10 µM [8]	IC50 [9]	Activity (SH-SY5Y)	IC50 [10]	inhibition (Rattus norvegicus)
COc1cc2c(cc1OC)C(C)N(c1ccc(F)cc1)CC2 (stereo not given)	7.6 µM (≈ 2.29 µg/mL)	4.8	23.2%	1.2%	71.1%	8.3 ×10⁻⁶ cm/s	0.3%	–	–	–	–	–
COc1cc2c(cc1OC)CN(c1cccnc1)CC2	78.9 µM (≈ 21.3 µg/mL)	3.7	15.5%	9.5%	66.9%	39.5 ×10⁻⁶ cm/s	0.2%	86%	–	–	–	–
COc1cc2c(cc1OC)CN(c1ccc(CO)cc1)CC2	93.9 µM (≈ 28.1 µg/mL)	3.1	79.5%	92.6%	97.8%	26.8 ×10⁻⁶ cm/s	64.4%	79%	–	–	–	–
COc1cc2c(cc1OC)CN(c1ccc(C(=O)O)cc1)CC2	≥ 95 µM	2.5	88.4%	91.6%	91.8%	81.2 ×10⁻⁶ cm/s	91.8%	97%	–	–	–	–
COc1cc2c(cc1OC)CN(c1cc(F)cc(F)c1)CC2	–	–	–	–	–	–	–	24%	> 100 µM	97.3%	5.1 µM	–
COc1cc2c(cc1OC)CN(c1ccc(C=O)cc1)CC2	6.6 µM (≈ 1.96 µg/mL)	3.7	9.2%	12.6%	61%	2.8 ×10⁻⁶ cm/s	0.4%	14%	> 100 µM	99%	1.55 µM	–
COc1cc2c(cc1OC)C(C)N(c1ccc(C=O)cc1)CC2 (stereo not given)	22.2 µM (≈ 6.91 µg/mL)	4	18%	15.5%	66.1%	7.4 ×10⁻⁶ cm/s	1%	–	–	–	–	–
COc1cc2c(cc1OC)CN(c1ccc(F)cc1)CC2	20.3 µM (≈ 5.83 µg/mL)	4.5	56.9%	2.5%	56.8%	20.4 ×10⁻⁶ cm/s	0.6%	57%	> 100 µM	104%	13.5 µM	–
COc1ccc(N2CCc3cc(OC)c(OC)cc3C2)cc1	3.7 µM (≈ 1.11 µg/mL)	4.2	53.5%	12.1%	77.1%	10.1 ×10⁻⁶ cm/s	1.7%	95%	–	–	–	–
COc1cc2c(cc1OC)CN(c1ccccn1)CC2	0.8 µM (≈ 0.216 µg/mL)	3.7	17.7%	9.9%	70.8%	38.8 ×10⁻⁶ cm/s	0.2%	89%	–	–	–	–
COc1cc2c(cc1OC)CN(c1ccccc1)CC2	19.1 µM (≈ 5.14 µg/mL)	4.5	10.5%	3.7%	63.9%	21 ×10⁻⁶ cm/s	0.4%	81%	–	–	–	–
COc1cc2c(cc1OC)CN(c1cccc(O)c1)CC2	89.6 µM (≈ 25.6 µg/mL)	3.2	72.1%	22.5%	94.7%	43.7 ×10⁻⁶ cm/s	0.5%	107%	–	–	–	–
COc1cc2c(cc1OC)C(C)N(c1ccc(CO)cc1)CC2 (stereo not given)	89.8 µM (≈ 28.1 µg/mL)	3.4	78.4%	83.4%	91.3%	34.4 ×10⁻⁶ cm/s	33.8%	–	–	–	–	–
COC(=O)c1ccccc1N1CCc2cc(OC)c(OC)cc2C1	12.7 µM (≈ 4.16 µg/mL)	4.3	0.2%	0.4%	7.2%	2.1 ×10⁻⁶ cm/s	0.1%	103%	–	–	–	–
COc1cc2c(cc1OC)[C@@H](C)NCC2	–	–	–	–	–	–	–	–	–	–	–	48%
COc1cc2c(cc1OC)CN(c1cc(C(F)(F)F)cc(C(F)(F)F)c1)CC2	< 0.5 µM	5.7	62.2%	83.1%	98.7%	< 0.1 ×10⁻⁶ cm/s	26.9%	86%	–	–	–	–
